Where two headings read alike, the source gives them in different places. Starred links: 1 amine or outer side, 2 acyl side, 3 side chain; linkers in the order of their positions; H or OH if unused. Non-standard residues stand in square brackets, D forms with d. Residues, ends and D or L forms follow the SMILES beside them. X1 = N[C@@H](Cc1ccccc1)CN(CC(=O)[*:2])[*:1]
Tests used:
Design in all cases: dose or concentration left out as unconfirmed
CXCR4 = target: T1, CXCR4 (Homo sapiens, UniProt P61073); experiment: cell-based; conditions: Figure S2a, read-out: CXCR4 activity, ctrl+ = 100
T1 construct: expressed in transfected cells; host or cells: U87, transient cotransfection of pNBe vectors

ACKR3 = ACKR3 (Homo sapiens, UniProt P25106); experiment: cell-based; conditions: read-out: ACKR3 activity, ctrl+ = 100, Figure S2a
CCR5 = target: T2, CCR5 (Homo sapiens, UniProt P51681); experiment: Figure S2a opioid peptide screen on chemokine receptors; assay type: cell-based
T2 construct: expressed in transfected cells

CCR9 = target: T3, CCR9 (Homo sapiens, UniProt P51686); experiment: as above; assay type: cell-based
T3 construct: expressed in transfected cells
T3 sequence (P51686 1-369): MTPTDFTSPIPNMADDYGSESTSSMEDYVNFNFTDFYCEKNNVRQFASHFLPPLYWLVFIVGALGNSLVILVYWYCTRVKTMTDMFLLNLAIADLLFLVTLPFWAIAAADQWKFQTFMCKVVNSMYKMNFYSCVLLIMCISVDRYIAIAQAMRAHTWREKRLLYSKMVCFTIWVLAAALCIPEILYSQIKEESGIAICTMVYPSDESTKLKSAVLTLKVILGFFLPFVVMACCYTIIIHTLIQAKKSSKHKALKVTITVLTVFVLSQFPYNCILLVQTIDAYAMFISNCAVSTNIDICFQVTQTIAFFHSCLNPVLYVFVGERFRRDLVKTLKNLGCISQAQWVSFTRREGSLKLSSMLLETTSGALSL

CXCR3A = target: T4, CXCR3A (Homo sapiens, UniProt P49682); experiment: as above; assay type: cell-based
T4 construct: expressed in transfected cells; host or cells: U87 cells
T4 sequence (P49682 1-368): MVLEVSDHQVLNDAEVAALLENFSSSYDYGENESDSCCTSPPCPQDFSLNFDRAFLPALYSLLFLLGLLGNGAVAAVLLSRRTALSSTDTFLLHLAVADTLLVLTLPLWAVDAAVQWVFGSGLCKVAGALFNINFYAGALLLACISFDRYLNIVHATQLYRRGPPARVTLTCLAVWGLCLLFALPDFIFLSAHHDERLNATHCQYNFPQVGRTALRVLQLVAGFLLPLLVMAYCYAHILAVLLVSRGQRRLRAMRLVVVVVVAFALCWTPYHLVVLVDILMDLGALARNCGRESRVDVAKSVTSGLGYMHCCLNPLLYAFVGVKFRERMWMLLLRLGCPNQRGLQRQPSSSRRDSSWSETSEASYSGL

CXCR5 = target: T5, CXCR5 (Homo sapiens, UniProt P32302); experiment: as above; assay type: cell-based
T5 construct: expressed in transfected cells
T5 sequence (P32302 1-372): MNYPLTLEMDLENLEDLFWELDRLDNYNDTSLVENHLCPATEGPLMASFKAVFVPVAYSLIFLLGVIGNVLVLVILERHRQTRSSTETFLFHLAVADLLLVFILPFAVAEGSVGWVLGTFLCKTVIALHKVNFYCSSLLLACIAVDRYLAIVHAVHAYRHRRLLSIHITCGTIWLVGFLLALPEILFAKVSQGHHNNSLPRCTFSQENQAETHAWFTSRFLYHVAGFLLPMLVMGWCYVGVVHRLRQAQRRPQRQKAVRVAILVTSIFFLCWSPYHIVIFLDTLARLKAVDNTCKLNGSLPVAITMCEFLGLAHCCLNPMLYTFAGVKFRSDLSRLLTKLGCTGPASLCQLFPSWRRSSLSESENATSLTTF

CXCR2 = target: T6, CXCR2 (Homo sapiens, UniProt P25025); experiment: as above; assay type: cell-based
T6 construct: expressed in transfected cells
T6 sequence (P25025 1-360): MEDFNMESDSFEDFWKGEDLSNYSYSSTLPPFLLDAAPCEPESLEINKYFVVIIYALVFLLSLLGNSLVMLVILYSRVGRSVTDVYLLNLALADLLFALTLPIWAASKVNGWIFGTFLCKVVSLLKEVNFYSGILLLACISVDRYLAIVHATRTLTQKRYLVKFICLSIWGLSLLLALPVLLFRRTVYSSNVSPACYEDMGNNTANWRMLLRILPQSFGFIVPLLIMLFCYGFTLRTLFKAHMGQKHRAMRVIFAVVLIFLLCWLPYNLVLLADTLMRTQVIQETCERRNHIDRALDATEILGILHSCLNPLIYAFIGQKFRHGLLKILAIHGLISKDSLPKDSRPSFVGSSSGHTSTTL

ACKR4 = target: T7, ACKR4 (Homo sapiens, UniProt Q9NPB9); experiment: as above; conditions: read-out: ACKR4 activity, ctrl+ = 100, Figure S2a
T7 sequence (Q9NPB9 1-350): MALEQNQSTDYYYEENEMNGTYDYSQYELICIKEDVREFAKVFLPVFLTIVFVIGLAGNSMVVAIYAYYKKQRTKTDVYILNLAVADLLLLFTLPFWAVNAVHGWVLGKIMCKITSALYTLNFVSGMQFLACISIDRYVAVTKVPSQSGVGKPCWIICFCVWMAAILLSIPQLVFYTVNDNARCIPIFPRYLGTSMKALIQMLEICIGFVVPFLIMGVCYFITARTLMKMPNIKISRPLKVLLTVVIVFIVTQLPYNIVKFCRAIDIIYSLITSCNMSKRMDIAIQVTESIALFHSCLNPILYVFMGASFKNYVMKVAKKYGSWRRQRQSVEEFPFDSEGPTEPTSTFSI

CXCR6 = target: T8, CXCR6 (Homo sapiens, UniProt O00574); experiment: as above; assay type: cell-based
T8 construct: expressed in transfected cells

[1] = replicate 1, read-out: CCR5 activity, ctrl+ = 100
[2] = replicate 2, read-out: CCR5 activity, ctrl+ = 100
[3] = replicate 1, read-out: CCR9 activity, ctrl+ = 100
[4] = replicate 2, read-out: CCR9 activity, ctrl+ = 100
[5] = replicate 1, read-out: CXCR3A activity, ctrl+ = 100
[6] = replicate 2, read-out: CXCR3A activity, ctrl+ = 100
[7] = replicate 1, read-out: CXCR5 activity, ctrl+ = 100
[8] = replicate 2, read-out: CXCR5 activity, ctrl+ = 100
[9] = replicate 1, read-out: CXCR2 activity, ctrl+ = 100
[10] = replicate 2, read-out: CXCR2 activity, ctrl+ = 100
[11] = replicate 1, read-out: CXCR6 activity, ctrl+ = 100
[12] = replicate 2, read-out: CXCR6 activity, ctrl+ = 100

T8 sequence (O00574 whole entry): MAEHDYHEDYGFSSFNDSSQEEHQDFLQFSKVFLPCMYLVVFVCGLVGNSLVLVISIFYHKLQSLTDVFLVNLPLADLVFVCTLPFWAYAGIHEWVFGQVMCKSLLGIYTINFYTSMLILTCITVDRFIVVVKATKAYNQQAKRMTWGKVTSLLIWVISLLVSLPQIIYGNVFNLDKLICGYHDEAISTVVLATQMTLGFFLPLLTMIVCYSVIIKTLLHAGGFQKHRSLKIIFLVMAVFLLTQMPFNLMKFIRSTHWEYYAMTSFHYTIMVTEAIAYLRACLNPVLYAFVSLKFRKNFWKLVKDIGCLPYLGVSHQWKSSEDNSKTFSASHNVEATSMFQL
Sequence of ACKR3 (P25106 whole entry): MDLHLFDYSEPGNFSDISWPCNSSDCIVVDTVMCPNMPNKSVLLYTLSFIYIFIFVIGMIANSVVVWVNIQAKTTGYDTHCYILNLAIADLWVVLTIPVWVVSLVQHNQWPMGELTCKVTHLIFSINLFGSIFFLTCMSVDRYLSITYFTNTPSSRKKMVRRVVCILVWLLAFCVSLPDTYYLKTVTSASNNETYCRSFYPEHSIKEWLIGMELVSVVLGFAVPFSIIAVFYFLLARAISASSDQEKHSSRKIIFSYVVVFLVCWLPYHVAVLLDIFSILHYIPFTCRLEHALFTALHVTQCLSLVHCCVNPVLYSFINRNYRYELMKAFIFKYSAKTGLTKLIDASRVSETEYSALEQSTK
T1 sequence (P61073 whole entry): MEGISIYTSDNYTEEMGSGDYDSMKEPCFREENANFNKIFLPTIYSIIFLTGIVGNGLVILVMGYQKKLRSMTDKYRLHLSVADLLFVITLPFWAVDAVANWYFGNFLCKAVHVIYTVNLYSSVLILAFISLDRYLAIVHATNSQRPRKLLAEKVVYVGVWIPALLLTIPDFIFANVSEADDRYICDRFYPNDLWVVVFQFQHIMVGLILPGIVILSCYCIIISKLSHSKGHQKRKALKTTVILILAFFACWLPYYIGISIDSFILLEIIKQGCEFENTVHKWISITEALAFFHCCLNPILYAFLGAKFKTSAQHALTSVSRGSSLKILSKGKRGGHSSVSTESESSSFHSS
T2 sequence (P51681 whole entry): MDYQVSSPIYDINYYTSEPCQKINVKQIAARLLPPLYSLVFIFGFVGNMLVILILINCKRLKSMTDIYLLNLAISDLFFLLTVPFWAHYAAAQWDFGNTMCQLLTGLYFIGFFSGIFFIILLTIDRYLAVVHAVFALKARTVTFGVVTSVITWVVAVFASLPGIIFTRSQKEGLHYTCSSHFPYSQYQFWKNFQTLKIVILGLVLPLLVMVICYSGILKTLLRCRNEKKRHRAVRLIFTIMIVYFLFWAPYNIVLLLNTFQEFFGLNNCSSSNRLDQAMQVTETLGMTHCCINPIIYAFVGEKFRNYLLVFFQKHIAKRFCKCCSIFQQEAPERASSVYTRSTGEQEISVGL

SMILES | activation (CXCR4; replicate 1) [%] | activation (CXCR4; replicate 2) [%] | activation (ACKR3; replicate 1) [%] | activation (ACKR3; replicate 2) [%] | activation (CCR5; [1]) [%] | activation (CCR5; [2]) [%] | activation (CCR9; [3]) [%] | activation (CCR9; [4]) [%] | activation (CXCR3A; [5]) [%] | activation (CXCR3A; [6]) [%] | activation (CXCR5; [7]) [%] | activation (CXCR5; [8]) [%] | activation (CXCR2; [9]) [%] | activation (CXCR2; [10]) [%] | activation (ACKR4; replicate 2) [%] | activation (CXCR6; [11]) [%] | activation (CXCR6; [12]) [%] | other results
NC(=O)[C@H](Cc1ccccc1)NC(=O)[C@H](Cc1c[nH]c2ccccc12)NC(=O)[C@@H]1CCCN1C(=O)[C@@H](N)Cc1ccc(O)cc1 [Endomorphin-1] | 36.3 | 16.8 | 5.29 | 17 | 0.726 | -0.866 | -1.12 | 1.74 | 3.34 | -3.63 | 1.35 | -1.48 | 0.676 | -3.23 | 1.77 | -0.315 | 1.12 | activation (ACKR4; replicate 1): 3.4%
C[C@H](NC(=O)CNC(=O)[C@@H](NC(=O)[C@H](Cc1ccccc1)NC(=O)CNC(=O)CNC[C@@H](N)Cc1ccccc1)[C@@H](C)O)C(=O)N[C@@H](CCCNC(=N)N)C(=O)N[C@@H](CCCCN)C(=O)N[C@@H](CO)C(=O)N[C@@H](C)C(=O)N[C@@H](CCCNC(=N)N)C(=O)N[C@@H](CCCCN)C(N)=O [FG Nociceptin 1-13] (H-[X1]GFTGARKSARK-NH2) | 1.4 | -4.91 | 61.5 | 58.4 | -0.325 | 0.224 | -2.13 | 0.443 | 2.13 | -1.45 | -5.41 | -2.11 | -5.21 | -6.16 | -0.784 | -0.041 | 0.0677 | activation (CXCR4; replicate 3): 27.5%; activation (ACKR3; replicate 3): 66%; activation (CCR5; replicate 3, read-out: CCR5 activity, ctrl+ = 100): 0.582%; activation (CCR9; replicate 3, read-out: CCR9 activity, ctrl+ = 100): 0.538%; activation (CXCR3A; replicate 3, read-out: CXCR3A activity, ctrl+ = 100): -3.37%; activation (CXCR5; replicate 3, read-out: CXCR5 activity, ctrl+ = 100): -0.496%; activation (CXCR2; replicate 3, read-out: CXCR2 activity, ctrl+ = 100): -0.318%; activation (ACKR4; replicate 3): 0.45%; activation (CXCR6; replicate 3, read-out: CXCR6 activity, ctrl+ = 100): 0.612%

— publication PMC7305236, “The atypical chemokine receptor ACKR3/CXCR7 is a broad-spectrum scavenger for opioid peptides” (Nature Communications, 2020)
